# Reference: patent US20250214951A1, “3-PHENYLISOXAZOLE DERIVATIVE, AND PHARMACEUTICAL COMPOSITION FOR PREVENTING OR TREATING EYE DISEASE, CONTAINING SAME AS ACTIVE INGREDIENT” (VASTHERA CO., LTD., priority 2022, published 2025)
# Tested on: A2E-BDP present in human retinal pigment epithelial cells (ARPE-19)
# Assay: Screening of ability to remove A2E-fluorescent labeling substance (A2E-BDP), lysate fluorescence
# Type: cell-based
# Conditions: ARPE-19, 24 h, ARPE-19 loaded with 10 μM A2E-BDP 24 h, test compound 50 μM once, fluorescence ex 485/em 535 nm, read-out: Capacity (%) to remove A2E-BDP at 50 μM
# Description: The human retinal pigment epithelial cell line (ARPE-19) used in the experiment was provided by ATCC (American Type Culture Collection). The ARPE-19 cell line was cultured in DMEM medium containing 10% FBS. After culture, the cells were dispensed into 96-well plates at a concentration of 4×10^3 cells/well and cultured for 24 hours. The ARPE-19 cell line was treated with A2E-fluorescent labeling substance (A2E-BDP) at a concentration of 10 μM for 24 hours to induce the accumulation of A2E-BDP in the ARPE-19 cell line.
# In order to evaluate the intracellular A2E removal ability of the compound of the present invention, an easily detectable A2E-fluorescent labeling substance (A2E-BDP) was used. The ARPE-19 cells prepared by the above method were treated with each test compound at a concentration of 50 μM once, and then cultured for 24 hours. The cells were lysed by adding a cell lysis buffer containing a protease inhibitor (50 mM Tris-chloride, pH 8.0, 150 mM sodium chloride, 1% NP-40, 1% sodium deoxycholate, 1% sodium dodecyl sulfate, and 2 mM ethylenediamine tetraacetic acid) to each 96-well. The prepared cell lysate was transferred to a white 96-well plate, and the fluorescence intensity was measured using a fluorescence microplate reader (VICTOR™ X3, Perkin Elmer, USA) (excitation 485 nm, emission 535 nm).
row,Compound,inhibition at 50 µM
1,"CCCc1cc(-c2cc(Br)ccc2OC)no1 [Example 1, 3-(5-bromo-2-methoxyphenyl)-5-propylisoxazole]",20.8%
2,"CCCc1cc(-c2cc(Br)ccc2O)no1 [Example 2, 4-bromo-2-(5-propylisoxazole-3-yl)phenol]",28.2%
3,"CCCc1ccc(OC)c(-c2cc(CCC)on2)c1 [Example 3, 3-(2-methoxy-5-propylphenyl)-5-propylisoxazole]",0.6%
4,"C=CCc1ccc(OC)c(-c2cc(CCC)on2)c1 [Example 4, 3-(5-allyl-2-methoxyphenyl)-5-propylisoxazole]",24.7%
5,"C=CCc1ccc(O)c(-c2cc(CCC)on2)c1 [Example 5, 4-allyl-2-(5-propylisoxazole-3-yl)phenol]",26.9%
6,"CCCc1ccc(O)c(-c2cc(CCC)on2)c1 [Example 6, 4-propyl-2-(5-propylisoxazole-3-yl)phenol]",24%
7,"COc1ccc(Br)cc1-c1cc(CO)on1 [Example 7, (3-(5-bromo-2-methoxyphenyl)isoxazole-5-yl)methanol]",16.6%
8,"OCc1cc(-c2cc(Br)ccc2O)no1 [Example 8, 4-bromo-2-(5-(hydroxymethyl)isoxazole-3-yl)phenol]",-15.3%
9,"C=CCOCc1cc(-c2cc(Br)ccc2OC)no1 [Example 9, 5-((allyloxy)methyl)-3-(5-bromo-2-methoxyphenyl)isoxazole]",26.2%
10,"CCCc1ccc(OC)c(-c2cc(CO)on2)c1 [Example 10, (3-(2-methoxy-5-propylphenyl)isoxazole-5-yl)methanol]",7.7%
11,"CCOC(=O)COCc1cc(-c2cc(Br)ccc2OC)no1 [Example 12, ethyl 2-((3-(5-bromo-2-methoxyphenyl)isoxazole-5-yl)methoxy)acetate]",21.7%
12,"COCc1cc(-c2cc(Br)ccc2OC)no1 [Example 13, 3-(5-bromo-2-methoxyphenyl)-5-(methoxymethyl)isoxazole]",31%
13,"CCCc1ccc(O)c(-c2cc(CO)on2)c1 [Example 14, 2-(5-(hydroxymethyl)isoxazole-3-yl)-4-propylphenol]",35.2%
14,"C=CCc1ccc(OC)c(-c2cc(CO)on2)c1 [Example 15, (3-(5-allyl-2-methoxyphenyl)isoxazole-5-yl)methanol]",48.1%
15,"C=CCc1ccc(O)c(-c2cc(CO)on2)c1 [Example 16, 4-allyl-2-(5-(hydroxymethyl)isoxazole-3-yl)phenol]",49.9%
16,"C=CCc1ccc(OC)c(-c2cc(COCC(=O)OCC)on2)c1 [Example 19, ethyl 2-((3-(5-allyl-2-methoxyphenyl)isoxazole-5-yl)methoxy)acetate]",37.4%
17,"CCCc1ccc(OC)c(-c2cc(COC)on2)c1 [Example 20, 3-(2-methoxy-5-propylphenyl)-5-(methoxymethyl)isoxazole]",17.2%
18,"C=CCc1ccc(OC)c(-c2cc(CN3CCN(CC=C)CC3)on2)c1 [Example 22, 3-(5-allyl-2-methoxyphenyl)-5-((4-allylpiperazine-1-yl)methyl)isoxazole]",47.4%
19,"C=CCc1ccc(OC)c(-c2cc(CN3CCN(Cc4ccccc4)CC3)on2)c1 [Example 23, 3-(5-allyl-2-methoxyphenyl)-5-((4-benzylpiperazine-1-yl)methyl)isoxazole]",45.5%
20,"C=CCc1ccc(OC)c(-c2cc(CN3CCN(CC(=O)OCC)CC3)on2)c1 [Example 24, ethyl 2-(4-((3-(5-allyl-2-methoxyphenyl)isoxazole-5-yl)methyl)piperazine-1-yl)acetate]",38.5%
21,"C=CCc1ccc(OC)c(-c2cc(CN3CCN(C(=O)OC(C)(C)C)CC3)on2)c1 [Example 25, tert-butyl 4-((3-(5-allyl-2-methoxyphenyl)isoxazole-5-yl)methyl)piperazine-1-carboxylate]",45.9%

# Tested on: LC3-II
# Assay: LC3-II production capacity at 10 μM (Table 4)
# Type: cell-based
# Conditions: Homo sapiens, 12 h
# Description: ARPE-19 was dispensed into a 6-well plate at a concentration of 1×10^5 cells/well and cultured for 24 hours. Then, cells were treated with example 17 compound of the present invention at concentrations of 10, 25, and 50 μM for 12 hours. Then, a cell lysis buffer containing a protease inhibitor was added to prepare a cell lysate. The LC3-II level was measured by Western immunoblotting using an anti-LC3-II antibody (Cell Signaling Technology, MA, USA). As an internal control, an antibody against β-actin (Cell Signaling Technology) was used and measured by Western immunoblotting in the same manner as above, and is shown in FIG. 6 (upper graph).
# The autophagy activation effect of example compounds expected to have autophagy activation ability and low cytotoxicity among the example compounds in Table 2 above in human retinal pigment epithelial cells was evaluated according to Experimental Example 7. That is, the autophagy activation effect through the increase of LC3-II was evaluated in a concentration-dependent manner, and the results are shown in FIGS. 15 and 16.
row,Compound,fold induction at 10 µM
1,"C=CCc1ccc(OC(F)(F)F)c(-c2cc(CN3CCN(C)CC3)on2)c1 [Example 52, 3-(5-allyl-2-(trifluoromethoxy)phenyl)-5-((4-methylpiperazine-1-yl)methyl)isoxazole]",> 13
2,"CCCc1ccc(OC)c(-c2cc(CN3C[C@@H](C)O[C@@H](C)C3)on2)c1 [Example 53, (2S,6R)-4-((3-(2-methoxy-5-propylphenyl)isoxazole-5-yl)methyl)-2,6-dimethylmorpholine]",0.9
3,"CCCc1ccc(OC)c(-c2cc(CN3CCC(OC)CC3)on2)c1 [Example 54, 3-(2-methoxy-5-propylphenyl)-5-((4-methoxypiperidine-1-yl)methyl)isoxazole]",2.8
4,"CCCc1ccc(OC)c(-c2cc(CN3CCC(C(=O)O)CC3)on2)c1 [Example 55, 1-((3-(2-methoxy-5-propylphenyl)isoxazole-5-yl)methyl)piperidine-4-carboxylic acid]",1.8
5,"CCCc1ccc(OC)c(-c2cc(CN3CCc4sccc4C3)on2)c1 [Example 56, 5-((6,7-dihydrothieno[3,2-c]pyridin-5(4H)-yl)methyl)-3-(2-methoxy-5-propylphenyl)isoxazole]",1.5
6,"CCCc1ccc(OC)c(-c2cc(CN3CCn4ccnc4C3)on2)c1 [Example 57, 5-((5,6-dihydroimidazo[1,2-a]pyrazin-7(8H)-yl)methyl)-3-(2-methoxy-5-propylphenyl)isoxazole]",1.1
7,"COc1ccc(CCO)cc1-c1cc(CN2CCN(C)CC2)on1 [Example 61, 2-(4-methoxy-3-(5-((4-methylpiperazine-1-yl)methyl)isoxazole-3-yl)phenyl)ethan-1-ol]",0.9
8,"COCCc1ccc(OC)c(-c2cc(CN3CCN(C)CC3)on2)c1 [Example 62, 3-(2-methoxy-5-(2-methoxyethyl)phenyl)-5-((4-methylpiperazine-1-yl)methyl)isoxazole]",2.4
9,"COc1ccc(C(C)C)cc1-c1cc(CN2CCN(C(C)=O)CC2)on1 [Example 63, 1-(4-((3-(5-isopropyl-2-methoxyphenyl)isoxazole-5-yl)methyl)piperazine-1-yl)ethan-1-on]",1.9
10,"C=CCc1ccc(OC)c(-c2cc(COc3ncnc4ccccc34)on2)c1 [Example 65, 3-(5-allyl-2-methoxyphenyl)-5-((quinazoline-4-yloxy)methyl)isoxazole]",1.8
11,"C=C(C)Cc1ccc(OC)c(-c2cc(CN3CCN(C(=O)OC(C)(C)C)CC3)on2)c1 [Example 66, tert-butyl 4-((3-(2-methoxy-5-(2-methylallyl)phenyl)isoxazole-5-yl)methyl)piperazine-1-carboxylate]",> 18
12,"C=C(C)Cc1ccc(OC)c(-c2cc(CN3CCNCC3)on2)c1 [Example 67, 3-(2-methoxy-5-(2-methylallyl)phenyl)-5-(piperazine-1-ylmethyl)isoxazole]",22.7
13,"C=C(C)Cc1ccc(OC)c(-c2cc(CO)on2)c1 [Example 68, (3-(2-methoxy-5-(2-methylallyl)phenyl)isoxazole-5-yl)methanol]",7.7
14,"COc1ccc(CC=C(C)C)cc1-c1cc(CN2CCN(C)CC2)on1 [Example 69, 3-(2-methoxy-5-(3-methylbut-2-en-1-yl)phenyl)-5-((4-methylpiperazine-1-yl)methyl)isoxazole]",5
